Test results from patent publication US20250051301A1, “MUTANT IDH1 AND IDH2 INHIBITOR AND APPLICATION THEREOF” (Betta Pharmaceuticals Co., Ltd, priority 2022, published 2025).
≈ marks a conversion by molar mass, not a printed value.

Legend:
mutant IDH1 = conditions: AML or MDS patients carrying IDH1 gene mutations, Phase I; cited from earlier work
IDH2^R140Q = molecular target: T1, IDH2^R140Q (Homo sapiens, UniProt P48735, R140Q); test: Enzyme activity inhibition assay (fluorescence-based), IDH2 R140Q; assay type: biochemical
T1 sequence (P48735 40-452 R140Q): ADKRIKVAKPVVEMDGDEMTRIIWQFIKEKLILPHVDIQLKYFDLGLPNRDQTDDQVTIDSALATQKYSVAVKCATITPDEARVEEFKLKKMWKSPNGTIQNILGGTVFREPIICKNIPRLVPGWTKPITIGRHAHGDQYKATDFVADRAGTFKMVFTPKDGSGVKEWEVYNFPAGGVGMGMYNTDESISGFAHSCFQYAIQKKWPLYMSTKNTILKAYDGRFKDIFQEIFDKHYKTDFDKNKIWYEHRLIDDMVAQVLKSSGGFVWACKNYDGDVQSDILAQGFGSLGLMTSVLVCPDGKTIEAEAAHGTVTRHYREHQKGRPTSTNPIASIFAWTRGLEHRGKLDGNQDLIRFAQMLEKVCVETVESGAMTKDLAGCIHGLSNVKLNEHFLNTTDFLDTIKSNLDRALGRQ
Description: (§1) The inhibitory ability of the compounds on the enzyme activities of IDH1^R132H and IDH2^R140Qwas detected and expressed as the half inhibitory concentration (IC50) value. AG-881 was used as a positive control compound. In this experiment, compounds were screened on enzymes IDH1^R132H and IDH2^R140Q using a fluorescence-based method (initial concentration: 10000 nM, 3-fold dilution, 10 concentrations, and single-well detection). • (1) Preparation of 1×assay buffer. • (2) Preparation of compound concentration gradient: the compounds to be tested were assayed at an initial concentration of 10000 nM, with 3-fold dilution and 10 concentrations, and diluted into 200-fold the final concentration in 100% DMSO solution in a 384-well plate. • (3) 250 nL of DMSO and 250 nL of diluted compounds were transferred to a reaction plate with Echo 550. • (4) IDH2^R140Q enzyme detection: 25 μL of an IDH2^R140Q enzyme solution was added, and the mixture was incubated for 60 minutes; then 25 μL of a substrate solution was added, and the mixture was incubated for 150 minutes; then 25 μL of a detection buffer was added, and the mixture was shaken for 1 minute and incubated for 60 minutes; and finally, Synergy 2, Ex544/Em590 cutoff 590 was used for reading. • (5) IDH1^R132H enzyme detection: 40 μL of a mixture solution of an IDH1^R132H enzyme at the 1.25-fold final concentration and NADPH was added, and the mixture was incubated for 60 minutes; then 10 μL of a substrate solution at the 5-fold final concentration was added, and the mixture was incubated for 90 minutes; then 25 μL of a detection buffer at the 3-fold final concentration was added, and the mixture was shaken for 1 minute. and finally, Synergy 2, Ex544/Em590 cutoff 590 was used for reading. • (8) Inhibition rate calculation, formula: % Inhibition=(RFU_sample−RFU_min)/(RFU_max−RFU_min)*100%, wherein RFU-sample represents the fluorescence intensity of a sample; RFU-min represents the average value of negative control wells and represents the fluorescence intensity with an enzyme; and RFU-max represents the average value of positive control wells and represents the fluorescence intensity without an enzyme. The curve fitting was performed using Graphpad Prism software to obtain IC50 values, and the test results were as shown in table 2.

IDH1^R132H [1] = molecular target: T2, IDH1^R132H (Homo sapiens, UniProt O75874, R132H); test: Enzyme activity inhibition assay (fluorescence-based), IDH1 R132H; assay type: biochemical
T2 sequence (O75874 whole entry R132H): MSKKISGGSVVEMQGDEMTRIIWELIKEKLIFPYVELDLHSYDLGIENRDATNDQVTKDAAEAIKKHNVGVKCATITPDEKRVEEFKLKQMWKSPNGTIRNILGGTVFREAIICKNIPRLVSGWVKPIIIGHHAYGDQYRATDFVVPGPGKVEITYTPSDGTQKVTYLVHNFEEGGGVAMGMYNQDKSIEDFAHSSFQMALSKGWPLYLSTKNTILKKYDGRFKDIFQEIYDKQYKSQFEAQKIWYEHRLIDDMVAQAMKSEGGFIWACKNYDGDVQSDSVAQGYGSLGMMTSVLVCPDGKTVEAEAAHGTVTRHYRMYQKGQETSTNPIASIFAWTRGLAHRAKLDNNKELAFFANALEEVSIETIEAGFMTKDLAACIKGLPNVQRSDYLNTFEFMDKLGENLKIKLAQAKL
Description: as §1

IDH1^R132H [2] = molecular target: T2, IDH1^R132H; test: 2-HG assay in cells (U87 cell line stably transfected with IDH1-R132H); assay type: cell-based; conditions: 72 hours, read-out: 2-HG in medium (IC50, nM) (IDH1^R132H)
Description: The compounds were detected for the inhibition of 2-HG production in the U87 cell line stably transfected with IDH1-R132H and the culture supernatant of TF-1 cells stably transfected with IDH2-R140Q. • (1) The cultured cells were collected by centrifugation, then suspended in a cell culture solution, counted, and seeded in a 96-well cell culture plate at 160 μL of cell suspension/well (20000 cells/well for U87-IDH1-R132H; 10000 cells/well for TF-1-IDH2-R140Q). • (2) A 96-well plate dilution was taken, and the compounds to be tested were diluted in a gradient manner in DMSO and a cell culture solution; and then 40 μL of the gradient-diluted compounds to be tested were added to the 96-well plate on which cells have been plated. […] Finally, the plate was cultured in a 37° C. incubator containing 5% CO2. • (3) After the compounds were incubated with the cells for 72 hours, the cell culture plate was taken out and centrifuged at 1500 rpm for 5 minutes, and then 100 μL of the medium supernatant was aspirated for 2-HG detection. • (4) 2-HG detection: the cell supernatant was diluted with purified water, 30 μL of the diluted sample was taken into a 1.5 ml centrifuge tube, and 200 μL of the internal standard solution was added. The mixture was mixed uniformly by vortex and centrifuged at 3200 rpm at 4° C. for 15 minutes. 100 μL of the supernatant solution was diluted with water at a 1:1 ratio and then detected by LC-MS. Analyte Peak Area was used to represent the 2-HG levels. • (5) Inhibition rate calculation, formula: % Inhibition=(1−Analyte Peak Area_sample/Analyte Peak Area_max)*100%, wherein Analyte Peak Area_sample represents the Analyte Peak Area of the sample to which the compound was added; Analyte Peak Area_max represents the average value of Analyte Peak Area of positive control wells (representing the absence of the compound). The curve fitting was performed using Graphpad Prism software to obtain IC50 values, and the test results were as shown in table 2.

[3] = Kinetic solubility experiment; assay type: physicochemical; conditions: buffer, kinetic from dmso stock
Description: 1. Preparation of Solutions/Buffers at Different pH Values
• Solution A: 17.42 g of K2HPO4 was weighed and dissolved in 1 L of ultrapure water. • Solution B: 13.65 g of KH2PO4 was weighed and dissolved in 1 L of ultrapure water.
A certain mass of substance to be tested was accurately weighed and dissolved in a certain volume of DMSO to obtain a 20 mM or 10 mM stock solution.
An acetonitrile stopping solution containing 1 ng/mL of labetalol and glibenclamide was prepared.
3. Incubation System (n=3)
The above-mentioned solutions were placed in a 96-well plate, respectively and shaken in a thermostatic oscillator for 2 hours (37° C., 150 rpm).
4. Control solution: 200 μM control solution of the substance to be tested was prepared in methanol. 5. Sample treatment
At a predetermined time, the 96-well plate was placed in a centrifuge and centrifuged at 4100 rpm for 15 minutes. A certain volume of the supernatant and a certain volume of control solution were respectively taken into 19 times volume of water containing 70% acetonitrile that has been previously added. The mixture was uniformly mixed, diluted 20 times with an internal standard stop solution and shaken in a thermostatic oscillator at 700 rpm at room temperature for 5 min. Further dilution may be necessary depending on the sensitivity of the compound, and sample analysis was performed by LC-MS/MS.
The ratio of compound peak area to internal standard peak area was used for calculation. According to the concentration relationship between the compound in the buffer and the control solution, the calculated concentration was the kinetic solubility, and the calculation formula was as follows:
Solubility(μg/mL)=mass spectral peak area of the compound to be tested in buffers at different pHs×200μM×molecular weight of the compound to be tested(MW)/mass spectral peak area of the compound to be tested in methanol/1000;

[4] = Pharmacokinetic detection in dogs; assay type: in vivo; conditions: beagle dogs
Description: Adult beagle dogs (6-12 months of age) received a single dose of the compounds to be tested via intravenous administration (IV) or oral gavage administration (PO), respectively. In the IV single dose, 5% DMSO+5% Solutol+90% physiological saline was used as the excipient; the intravenous administration was carried out at a dose of 1 mg/kg (2 females and 2 males); and the venous blood collection time was 5 min, 15 min, 0.5 h, 1 h, 2 h, 4 h, 6 h, 8 h, 10 h and 24 h. In the PO single dose, 5% DMSO+5% Solutol+90% purified water was used as the excipient; the oral gavage administration was carried out at a dose of 5 mg/kg (2 females and 2 males); and the blood collection time was 15 min, 0.5 h, 1 h, 2 h, 4 h, 6 h, 8 h, 10 h and 24 h. Blood samples were collected in tubes containing EDTA anticoagulants and centrifuged at 4000 rpm at 4° C. for 10 min, and the supernatants were transferred to centrifuge tubes and stored at −20° C. For the detection, 30 μL of the plasma supernatant sample was taken, and 200 μL of an internal standard solution was added. The mixture was centrifuged at 3000 rpm for 10 minutes. Then, 100 μL of the supernatant solution was diluted with water at a 1:1 ratio and then injected with an injection volume of 5 μL. The concentration of the compounds to be tested in the plasma sample was analyzed by liquid chromatography-tandem mass spectrometry (LC-MS/MS). Plasma concentration-time data for individual animals were analyzed using Sciex Analyst software. The non-compartment model was introduced into the concentration analysis, and pharmacokinetic parameters (Cl_obs, Cmax and AUClast) of the compounds to be tested were calculated using WinNonlin (version 4.1; pHarsight) software.

[5] = both sexes, dog, plasma, PO, 5 mg/kg

SMILES | IC50 (IDH2^R140Q; class symbols) [nM] | IC50 (IDH1^R132H [1]; class symbols) [nM] | IC50 (IDH1^R132H [2]; class symbols) [nM] | further results
N#Cc1ccnc(N2C(=O)CC[C@H]2C(=O)N(c2cncc(F)c2)[C@H](C(=O)NC2CC(F)(F)C2)c2ccccc2Cl)c1 [AG-120] |  |  |  | patients in whom a decrease in α-hydroxyglutaric acid (2-HG) levels was observed (mutant IDH1): 98%
C[C@@H](Nc1nc(N[C@H](C)C(F)(F)F)nc(-c2cc(Cl)c(N)c(Cl)n2)n1)C(F)(F)F [Example 1] |  |  |  | IC50 (IDH2^R140Q; numeric values): 128 nM; IC50 (IDH1^R132H [1]; numeric values): 143 nM; IC50 (IDH1^R132H [2]; numeric values): 26 nM
C[C@@H](Nc1nc(N[C@H](C)C(F)(F)F)nc(-c2cc(C(F)F)c(N)c(Cl)n2)n1)C(F)(F)F [Example 8, 6-(5-amino-6-chloro-4-(difluoromethyl)pyridin-2-yl)-N^2,N^4-bis((R)-1,1,1-trifluoroprop-2-yl)-1,3,5-triazine-2,4-diamine] | 100 to 1000 | > 1000 | 100 to 1000 | 
C[C@@H](Nc1nc(N[C@H](C)C(F)(F)F)nc(-c2cccc(Cl)n2)n1)C(F)(F)F [compound 1, reference compound] |  |  |  | solubility at 2 h ([3]; aqueous buffer, pH = 3.0, 37° C.): 1.6 µg/mL (≈ 3.86 µM); solubility at 2 h ([3]; aqueous buffer, pH = 5.0, 37° C.): 1.4 µg/mL (≈ 3.38 µM); solubility at 2 h ([3]; aqueous buffer, pH = 7.4, 37° C.): 0.8 µg/mL (≈ 1.93 µM); solubility at 2 h ([3]; simulated gastric fluid, pH = 1.0, 37° C.): 39.6 µg/mL (≈ 95.5 µM); Cl_obs ([4]; IV, 1 mg/kg): 24.2 mL/min/kg; AUC(0-t) ([4]; both sexes, dog, plasma, IV, 1 mg/kg): 653 ng·h/mL; AUC(0-t) [4, 5]: 2160 ng·h/mL; Cmax [4, 5]: 658 ng/mL

The next lines start with results.

IC50 (IDH2^R140Q; class symbols) [nM] | IC50 (IDH1^R132H [1]; class symbols) [nM] | IC50 (IDH1^R132H [2]; class symbols) [nM] | SMILES | further results
100 to 1000 | > 1000 | 50 to 100 | Cc1cc(-c2nc(N[C@H](C)C(F)(F)F)nc(N[C@H](C)C(F)(F)F)n2)nc(Cl)c1N [Example 7, 6-(5-amino-6-chloro-4-methylpyridin-2-yl)-N^2,N^4-bis((R)-1,1,1-trifluoropropyl-2-yl)-1,3,5-triazine-2,4-diamine] | 
50 to 100 | 50 to 100 | > 1000 | C[C@@H](Nc1nc(N[C@H](C)C(F)(F)F)nc(-c2cc(F)c(Br)c(Cl)n2)n1)C(F)(F)F [Example 18, 6-(5-bromo-6-chloro-4-fluoropyridin-2-yl)-N^2,N^4-bis((R)-1,1,1-trifluoroprop-2-yl)-1,3,5-triazine-2,4-diamine] | 
50 to 100 | 50 to 100 | > 1000 | C[C@@H](Nc1nc(N[C@H](C)C(F)(F)F)nc(-c2cc(Cl)c(O)c(Cl)n2)n1)C(F)(F)F [Example 19, 6-(4,6-dichloro-5hydroxylpyridin-2-yl)-N^2,N^4-bis((R)-1,1,1-trifluoroprop-2-yl)-1,3,5-triazine-2,4-diamine] | 
100 to 1000 | 100 to 1000 | ≤ 50 | C[C@@H](Nc1nc(N[C@H](C)C(F)(F)F)nc(-c2cc(F)c(N)c(F)n2)n1)C(F)(F)F [Example 23, 6-(5-amino-4,6-difluoropyridin-2-yl)-N^2,N^4-bis((R)-1,1,1-trifluoroprop-2-yl)-1,3,5-triazine-2,4-diamine] | 
